The term IC50 denotes the concentration at which inhibition is half-maximal.

The experiment deals with human lung tryptase. Kind of experiment: β-Tryptase In-Vitro Enzyme Assay. In kind it is biochemical. The settings on record: human lung tryptase 1 nM, substrate H-D-HHT-Ala-Arg-pNa 500 μM, pH 7.4, room temperature. As for the experimental part: The β-tryptase assay was conducted with human lung tryptase (Cortex Biochem #CP3033) in an aqueous buffer (10 mM Tris, 10 mM Hepes, 150 mM NaCl, 0.1% PEG 8000, pH 7.4) using the chromogenic substrate H-D-HHT-Ala-Arg-pNa. […] Percent inhibition was calculated by comparing the initial reaction velocity of samples without inhibitor to those with inhibitor. The initial reaction velocities were analyzed using Microsoft Excel.
As to `NCc1ccc2c(c1)C1(CCN(C(=O)c3ccc(Cl)c(Cl)c3)CC1)CS2(=O)=O` [Cpd 352, 1-(3,4-dichlorophenyl)carbonyl-5′-aminomethyl-spiro[piperidine-4,3′-(1,1-dioxo-(2H)-benzo[b]thiophene)]], the half-maximal inhibitory concentration (IC50) was 5300 nM. Then `NCc1ccc2c(c1)C1(CCN(C(=O)/C=C/c3cccs3)CC1)CO2` [Cpd 254, (E)-1-(thien-2-ylethenyl)carbonyl-5′-aminomethyl-spiro[piperidine-4,3′-(2H)-benzo[b]furan]], with 370 nM. The value for `Cc1ccc(C(=O)N2CCC3(CC2)COc2ccc(CN)cc23)cc1I` [Cpd 50, 1-(3-iodo-4-methyl-phenyl)carbonyl-5′-aminomethyl-spiro[piperidine-4,3′-(2H)-benzo[b]furan]] was 36 nM. The value for `NCc1ccc2c(c1)C1(CCN(C(=O)Cc3ccc(F)c(F)c3)CC1)CO2` [Cpd 82, 1-(3,4-difluoro-benzyl)carbonyl-5′-aminomethyl-spiro[piperidine-4,3′-(2H)-benzo[b]furan]] was 1300 nM. As to `NCc1ccc2c(c1)C1(CCN(C(=O)/C=C/c3cccc(OCc4ccccc4)c3)CC1)CO2` [Cpd 281, (E)-1-(3-benzyloxy-phenylethenyl)carbonyl-5′-aminomethyl-spiro[piperidine-4,3′-(2H)-benzo[b]furan]], the IC50 is 24 nM. Then `NCc1ccc2c(c1)C1(CCN(C(=O)/C=C/c3ccc(Cl)cc3)CC1)CO2` [Cpd 165, (E)-1-(4-chloro-phenylethenyl)carbonyl-5′-aminomethyl-spiro[piperidine-4,3′-(2H)-benzo[b]furan]], with 380 nM; and `NCc1ccc2c(c1)C1(CCN(C(=O)Cc3ccc(Cl)c(Cl)c3)CC1)CO2` [Cpd 86, 1-(3,4-dichloro-benzyl)carbonyl-5′-aminomethyl-spiro[piperidine-4,3′-(2H)-benzo[b]furan]], with 620 nM. Then `NCc1ccc2c(c1)C1(CCN(C(=O)c3ccc(-c4ccc(Cl)cc4)o3)CC1)CO2` [Cpd 12, 1-[5-(4-chloro-phenyl)-furan-2-yl]carbonyl-5′-aminomethyl-spiro[piperidine-4,3′-(2H)-benzo[b]furan]], with 66 nM; and `NCc1ccc2c(c1)C1(CCN(C(=O)/C=C/c3ccc4c(c3)OCO4)CC1)CO2` [Cpd 187, (E)-1-(benzodioxol-5-ylethenyl)carbonyl-5′-aminomethyl-spiro[piperidine-4,3′-(2H)-benzo[b]furan]], with 790 nM. Then `Cc1cc(C(=O)N2CCC3(CC2)COc2ccc(CN)cc23)ccc1Br` [Cpd 30, 1-(3-methyl-4-bromo-phenyl)carbonyl-5′-aminomethyl-spiro[piperidine-4,3′-(2H)-benzo[b]furan]], with 140 nM; and `Cc1cccc(C(=O)N2CCC3(CC2)COc2ccc(CN)cc23)c1` [Cpd 41, 1-(3-methyl-phenyl)carbonyl-5′-aminomethyl-spiro[piperidine-4,3′-(2H)-benzo[b]furan]], with 470 nM; and `NCc1ccc2c(c1)C1(CCN(C(=O)/C=C/c3cccc(OC(F)(F)F)c3)CC1)CO2` [Cpd 167, (E)-1-(3-trifluoromethoxy-phenylethenyl)carbonyl-5′-aminomethyl-spiro[piperidine-4,3′-(2H)-benzo[b]furan]], with 600 nM.

On to `Cc1ccc(-c2ccc(C(=O)N3CCC4(CC3)COc3ccc(CN)cc34)o2)cc1` [Cpd 131, 1-[5-(4-methyl-phenyl)-furan-2-yl]carbonyl-5′-aminomethyl-spiro[piperidine-4,3′-(2H)-benzo[b]furan]], for which it took 72 nM to reach half-maximal inhibition (IC50). Compound `CS(=O)(=O)CC(=O)N1CC2(CCN(C(=O)c3ccc(C#Cc4ccccc4)o3)CC2)c2cc(CN)ccc21` [Cpd 333, 1-(5-phenylethynyl-furan-2-yl)carbonyl-1′-(methylsulfonylmethyl)carbonyl-5′-aminomethyl-spiro[piperidine-4,3′-(2H)-indole]] returned an IC50 of 65 nM.

The compound `COc1cccc(CCC(=O)N2CCC3(CC2)COc2ccc(CN)cc23)c1` [Cpd 101, 1-(3-methoxy-phenethyl)carbonyl-5′-aminomethyl-spiro[piperidine-4,3′-(2H)-benzo[b]furan]] yielded an IC50 of 2400 nM.

As for `CSc1cc(-c2ccc(Cl)cc2)c(C(=O)N2CCC3(CC2)COc2ccc(CN)cc23)s1` [Cpd 299, 1-[3-(4-chloro-phenyl)-5-methylthio-thien-2-yl]carbonyl-5′-aminomethyl-spiro[piperidine-4,3′-(2H)-benzo[b]furan]], half-maximal inhibition (IC50) required 17 nM. The value for `COc1ccccc1/C=C/C(=O)N1CCC2(CC1)COc1ccc(CN)cc12` [Cpd 194, (E)-1-(2-methoxy-phenylethenyl)carbonyl-5′-aminomethyl-spiro[piperidine-4,3′-(2H)-benzo[b]furan]] was 150 nM; that for `NCc1ccc2c(c1)C1(CCN(C(=O)c3ccc(C4CCCCC4)cc3)CC1)CO2` [Cpd 73, 1-(4-cyclohexyl-phenyl)carbonyl-5′-aminomethyl-spiro[piperidine-4,3′-(2H)-benzo[b]furan]] was 2500 nM; that for `NCc1ccc2c(c1)C1(CCN(C(=O)c3sc4cccc(Cl)c4c3Cl)CC1)CO2` [Cpd 175, 1-(3,4-dichloro-benzo[b]thien-2-yl)carbonyl-5′-aminomethyl-spiro[piperidine-4,3′-(2H)-benzo[b]furan]] was 58 nM.

`NCc1ccc2c(c1)C1(CCN(C(=O)CC(c3ccccc3)c3ccccc3)CC1)CO2` [Cpd 354, 1-(2,2-diphenylethyl)carbonyl-5′-aminomethyl-spiro[piperidine-4,3′-(2H)-benzo[b]furan]] displayed an IC50 of 430 nM. Then `NCc1ccc2c(c1)C1(CCN(C(=O)c3ccc(C#Cc4ccccc4)o3)CC1)CN2C(N)=O` [Cpd 325, 1-(5-phenylethynyl-furan-2-yl)carbonyl-1′-aminocarbonyl-5′-aminomethyl-spiro[piperidine-4,3′-(2H)-indole]], with 25 nM.

Compound `NCc1ccc2c(c1)C1(CCN(C(=O)C3=CCc4ccccc43)CC1)CO2` [Cpd 286, 1-3H-inden-1-ylcarbonyl-5′-aminomethyl-spiro[piperidine-4,3′-(2H)-benzo[b]furan]] yielded an IC50 of 920 nM.

For `NCc1ccc2c(c1)C1(CCN(C(=O)Cc3cccc(Br)c3)CC1)CO2` [Cpd 95, 1-(3-bromo-benzyl)carbonyl-5′-aminomethyl-spiro[piperidine-4,3′-(2H)-benzo[b]furan]], the midpoint of inhibition, the IC50, lay at 3200 nM. Regarding `NCc1ccc2c(c1)C1(CCN(C(=O)c3cc(C(N)=O)cc(-c4nc(-c5cccs5)no4)c3)CC1)CO2` [Cpd 284, 1-[3-(3-thien-2-yl-[1,2,4]oxadiazol-5-yl)-5-aminocarbonyl-phenyl]carbonyl-5′-aminomethyl-spiro[piperidine-4,3′-(2H)-benzo[b]furan]], the IC50 was determined as 4.6 nM. Then `NCc1ccc2c(c1)C1(CCN(C(=O)c3ccc4c(c3)S(=O)(=O)c3ccccc3C4=O)CC1)CO2` [Cpd 7, 1-(9-oxo-10,10-dioxo-thioxanthen-3-yl)carbonyl-5′-aminomethyl-spiro[piperidine-4,3′-(2H)-benzo[b]furan]], with 780 nM. Then `NCc1ccc2c(c1)C1(CCN(C(=O)Cc3cccc(Br)c3)CC1)CO2` [Cpd 87, 1-(3-bromo-benzyl)carbonyl-5′-aminomethyl-spiro[piperidine-4,3′-(2H)-benzo[b]furan]], with 1700 nM.

(Values after US8158792B2, “Spiropiperidines for use as tryptase inhibitors” (Janssen Pharmaceutica N.V., priority 2007, dated 2012).)
